Each structure is given as a SMILES string. Where only a bound is given, the exact number is not on record here.

The first assay deals with T1, Met kinase domain (GST fusion protein) (Homo sapiens, UniProt P08581).
T1 construct: Purified GST fusion protein containing the Met kinase domain
T1 sequence (P08581 1078-1345 limits assumed): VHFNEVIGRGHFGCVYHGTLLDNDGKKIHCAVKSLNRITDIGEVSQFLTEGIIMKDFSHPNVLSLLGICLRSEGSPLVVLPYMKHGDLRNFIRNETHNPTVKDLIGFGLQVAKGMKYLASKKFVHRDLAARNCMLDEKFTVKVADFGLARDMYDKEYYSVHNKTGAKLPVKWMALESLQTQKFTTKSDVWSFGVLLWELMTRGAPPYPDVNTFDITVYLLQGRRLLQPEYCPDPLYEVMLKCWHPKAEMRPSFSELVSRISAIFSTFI
As to the kind of experiment: Met transphosphorylation assay (ELISA, poly(glu-tyr) substrate).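 Further: Cell-free ELISA with plate-bound poly(Glu:Tyr 4:1) phosphorylated by GST-fused Met kinase domain plus ATP and Mn2+, phosphotyrosine detected by anti-phosphotyrosine antibody with HRP and ABTS read-out.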 Format: biochemical. The conditions noted are these: Table 2; read-out: Met IC50.
Protocol: General procedure is as follows: a compound is introduced to cells expressing the test kinase, either naturally or recombinantly, for a selected period of time after which, if the test kinase is a receptor, a ligand known to activate the receptor is added. The cells are lysed and the lysate is transferred to the wells of an ELISA plate previously coated with a specific antibody recognizing the substrate of the enzymatic phosphorylation reaction. Non-substrate components of the cell lysate are washed away and the amount of phosphorylation on the substrate is detected with an antibody specifically recognizing phosphotyrosine compared with control cells that were not contacted with a test compound.
Met Transphosphorylation Assay
This assay is used to measure phosphotyrosine levels on a poly(glutamic acid:tyrosine, 4:1) substrate as a means for identifying agonists/antagonists of met transphosphorylation of the substrate.
PBS, Gibco Catalog # 450-1300EB • 4. 50 mM HEPES • 5. […] Purified GST fusion protein containing the Met kinase domain, SUGEN, Inc. • 7. TBST Buffer. • 8. 10% aqueous (MilliQue H2O) DMSO. • 9. […] 2× Kinase Dilution Buffer: for 100 mL, mix 10 mL 1M HEPESat pH 7.5 with 0.4 mL 5% BSA/PBS, 0.2 mL 0.1 M sodium orthovanadate and 1 mL 5M sodium chloride in 88.4 mL dH2O. • 11. 4× ATP Reaction Mixture: for 10 mL, mix 0.4 mL 1 M manganese chloride and 0.02 mL 0.1 M ATP in 9.56 mL dH2O. • 12. 4× Negative Controls Mixture: for 10 mL, mix 0.4 mL 1 M manganese chloride in 9.6 mL dH2O. • 13. […] 500 mM EDTA. • 15. Antibody Dilution Buffer: for 100 mL, mix 10 mL 5% BSA/PBS, 0.5 mL 5% Carnation® Instant Milk in PBS and 0.1 mL 0.1 M sodium orthovanadate in 88.4 mL TBST. • 16. Rabbit polyclonal antophosphotyrosine antibody, SUGEN, Inc. • 17. Goat anti-rabbit horseradish peroxidase conjugated antibody, Biosource, Inc. • 18. ABTS Solution: for 1 L, mix 19.21 g citric acid, 35.49 g Na2HPO4 and 500 mg ABTS with sufficient dH2O to make 1 L. • 19. ABTS/H2O2: mix 15 mL ABST solution with 2μL H2O2 five minutes before use. • 20. 0.2 M HCl Procedure: • 1. Coat ELISA plates with 2 μg Poly(Glu-Tyr) in 100 μL PBS, hold-overnight at 4° C. • 2. Block plate with 150 μL of 5% BSA/PBS for 60 min. • 3. Wash plate twice with PBS then once with 50 mM Hepes buffer pH 7.4. • 4. Add 50 μl of the diluted kinase to all wells. (Purified kinase is diluted with Kinase Dilution Buffer. Final concentration should be 10 ng/well.) • 5. Add 25 μL of the test compound (in 4% DMSO) or DMSO alone (4% in dH2O) for controls to plate. • 6. Incubate the kinase/compound mixture for 15 minutes. • 7. Add 25 μL of 40 mM MnCl2 to the negative control wells. • 8. Add 25 μL ATP/MnCl2 mixture to the all other wells (except the negative controls). Incubate for 5 min. • 9. Add 25 μL 500 mM EDTA to stop reaction. • 10. Wash plate 3× with TBST. • 11. Add 100 μL rabbit polyclonal anti-Ptyr diluted 1:10,000 in Antibody Dilution Buffer to each well. Incubate, with shaking, at room temperature for one hour. • 12. Wash plate 3× with TBST. • 13. […] Add 100 μL per well and incubate at room temperature, with shaking, for one hour. • 14. Wash plate 1× with PBS. • 15. Add 100 μl of ABTS/H2O2 solution to each well. • 16. If necessary, stop the development reaction with the addition of 100 μl of 0.2M HCl per well. • 17.
Regarding `CC(Oc1cc(-c2cccc(C(=O)N3CCN(C)CC3)c2)cnc1N)c1c(Cl)ccc(F)c1Cl` (stereo not drawn) [Example I-312], the IC50 is 0.062 µM.

For the compound `Nc1ncc(-c2ccc(C(=O)N3CC[C@@H](N)C3)cc2)cc1OCc1c(F)ccc(F)c1Cl` [Example I-218, {4-[6-Amino-5-(2-chloro-3,6-difluoro-benzyloxy)-pyridin-3-yl]-phenyl}-[(3R)-3-amino-pyrrolidin-1-yl]-methanone], the IC50 worked out at 0.053 µM.

For `CCN(CC)CCS(=O)(=O)Nc1cccc(-c2cnc(N)c(OCc3c(F)ccc(F)c3Cl)c2)c1` [Example I-258, 2-Diethylamino-ethanesulfonic acid {3-[6-amino-5-(2-chloro-3,6-difluoro-benzyloxy)-pyridin-3-yl]-phenyl}amide], the IC50 is 1.67 µM.

For `CC(Oc1cc(-c2cccc(C(=O)N3CC[C@@H](N)C3)c2)cnc1N)c1c(Cl)ccc(F)c1Cl` (stereo partly drawn) [Example I-293], the IC50 is 0.051 µM.

As to `CC(Oc1cc(-c2ccc(C(=O)NCCN3CCCC3)cc2)cnc1N)c1c(F)ccc(F)c1Cl` (stereo not drawn) [Example I-340, 4-{6-Amino-5-[1-(2-chloro-3,6-difluoro-phenyl)-ethoxy]-pyridin-3-yl}-N-(2-pyrrolidin-1-yl-ethyl)-benzamide], the IC50 was found to be 0.086 µM.

Turning to `CCN(CC)CCOc1ccc(-c2cnc(N)c(OC(C)c3c(Cl)ccc(F)c3Cl)c2)cc1` (stereo not drawn) [Example I-360, 3-[1-(2,6-Dichloro-3-fluoro-phenyl)-ethoxy]-5-[4-(2-diethylamino-ethoxy)-phenyl]-pyridin-2-ylamine], the half-inhibitory concentration (IC50) was 0.033 µM.

As to `Nc1ncc(-c2cccc(NS(=O)(=O)CCN3CCCC3)c2)cc1OCc1c(F)ccc(F)c1Cl` [Example I-256, 2-Pyrrolidin-1-yl-ethanesulfonic acid {3-[6-amino-5-(2-chloro-3,6-difluoro-benzyloxy)-pyridin-3-yl]-phenyl}-amide], the 50% inhibitory concentration (IC50) was 0.23 µM.

Consider `CC(=O)N1CCN(C(=O)c2ccc(-c3cnc(N)c(OCc4ccc(C(C)(C)C)cc4)c3)cc2)CC1` [Example I-198, 1-(4-{4-[6-Amino-5-(4-tert-butyl-benzyloxy)-pyridin-3-yl]-benzoyl}-piperazin-1-yl)-ethanone], for which the IC50 was found to be 3 µM.

Still in this assay, the particulars now being: plain numbers in column Met IC50 (μM) of Table 2; read-out: Met IC50.
As to `Nc1ncc(-c2cncnc2)cc1OCc1ccc(Cl)cc1` [Example I-498, 3-(4-Chloro-benzyloxy)-5-pyrimidin-5-yl-pyridin-2-ylamine], the IC50 was greater than 20 µM.

`CC(Oc1cc(-c2ccc(N3CCCS3(=O)=O)cc2)cnc1N)c1c(F)ccc(F)c1Cl` (stereo not drawn) [Example I-365, 3-[1-(2-Chloro-3,6-difluoro-phenyl)-ethoxy]-5-[4-(1,1-dioxo-1lambda*6*- isothiazolidin-2-yl)-phenyl]-pyridin-2-ylamine]: the IC50 came out at 0.14 µM.

For `Nc1ncc(-c2ccccn2)cc1OCc1ccccc1Cl` [Example I-492, 5′-(2-Chloro-benzyloxy)-[2,3′]bipyridinyl-6′-ylamine], the 50% inhibitory concentration (IC50) was found to be 8.24 µM.

`Nc1ncc(-c2ccccn2)cc1OCc1ccccc1` [Example I-488, 5′-Benzyloxy-[2,3′]bipyridinyl-6′-ylamine]: the IC50 is greater than 20 µM.

With `CC(=O)N1CCN(CCNC(=O)c2cccc(-c3cnc(N)c(OC(C)c4c(Cl)cccc4Cl)c3)c2)CC1` (stereo not drawn) [Example I-393, N-[2-(4-Acetyl-piperazin-1-yl)-ethyl]-3-{6-amino-5-[1-(2,6-dichloro-phenyl)-ethoxy]-pyridin-3-yl}-benzamide], the IC50 was 0.079 µM.

As for `CC(Oc1cc(-c2ccc(NC(=O)N3CCC[C@@H]3CN3CCCC3)cc2)cnc1N)c1c(F)ccc(F)c1Cl` (stereo partly drawn) [Example I-385, (R)-2-Pyrrolidin-1-ylmethyl-pyrrolidine-1-carboxylic acid (4-{6-amino-5-[1-(2-chloro-3,6-difluoro-phenyl)-ethoxy]-pyridin-3-yl}-phenyl)-amide], the IC50 was 0.13 µM.

Still in this assay, the particulars now being: read-out: Met IC50.
As to `Nc1ncc(-c2ccc(C(=O)N3CC[C@H](N)C3)cc2)nc1OCc1c(F)ccc(F)c1Cl` [II-36, {4-[5-Amino-6-(2-chloro-3,6-difluoro-benzyloxy)-pyrazin-2-yl]-phenyl}-[(3S)-3-amino-pyrrolidin-1-yl]-methanone], the IC50 is 0.37 µM.

Take `CC(Oc1nc(-c2cccc(C(=O)N3CC[C@H](N)C3)c2)cnc1N)c1c(Cl)cccc1Cl` (stereo partly drawn) [II-179, (3-{5-Amino-6-[1-(2,6-dichloro-phenyl)-ethoxy]-pyrazin-2-yl}-phenyl)-((S)-3-amino-pyrroldin-1-yl)-methanone]: the IC50 turned out to be 0.11 µM.

With `Nc1ncc(-c2ccc3[nH]c(C(=O)N4CC[C@H](N)C4)cc3c2)cc1OCc1c(Cl)cccc1Cl` [Example I-84, {5-(6-Amino-5-(2,6-dichloro-benzyloxy)-pyridin-3-yl]-1H-indol-2-yl}-[(3S)-amino-pyrrolidin-1-yl]-methanone], the IC50 was found to be 0.14 µM.

Take `CC(Oc1nc(-c2ccc(C(=O)NC3CCN(C)CC3)cc2)cnc1N)c1c(F)ccc(F)c1Cl` (stereo not drawn) [II-116, 4-{5-Amino-6-[1-(2-chloro-3,6-difluoro-phenyl)-ethoxy]-pyrazin-2-yl}-N-(1-methyl-piperidin-4-yl)-benzamide]: the IC50 was 0.19 µM.

As to `CC(Oc1nc(-c2ccc(C(=O)NCCN3CCCC3)cc2)cnc1N)c1c(F)ccc(F)c1Cl` (stereo not drawn) [II-117, 4-{5-Amino-6-[1-(2-chloro-3,6-difluoro-phenyl)-ethoxy]-pyrazin-2-yl}-N-(2-pyrrolidin-1-yl-ethyl)-benzamide], the IC50 stood at 0.11 µM.

Consider `CC(Oc1nc(-c2cccc(C(=O)NC[C@@H](O)CN3CCCC3)c2)cnc1N)c1c(Cl)ccc(F)c1Cl` (stereo partly drawn) [II-138, 3-{5-Amino-6-[1-(2,6-dichloro-3-fluoro-phenyl)-ethoxy]-pyrazin-2-yl}-N-((R)-2-hydroxy-3-pyrrolidin-1-yl-propyl)-benzamide], for which the IC50 stood at 0.13 µM.

For the compound `Nc1ncc(-c2ccc(F)cc2)cc1OCc1c(Cl)cccc1Cl` [Example I-8, 3-(2,6-Dichloro-benzyloxy)-5-(4-fluoro-phenyl)-pyridin-2-ylamine], the IC50 was found to be 8.01 µM.

In the case of `CC(Oc1nc(-c2cccc(C(=O)N3CCN(C)CC3)c2)cnc1N)c1c(Cl)cccc1Cl` (stereo not drawn) [II-181, (3-{5-Amino-6-[1-(2,6-dichloro-phenyl)-ethoxy]-pyrazin-2-yl}-phenyl)-(4-methyl-piperazin-1-yl)-methanone], the IC50 is 0.25 µM.

For the compound `CC(Oc1nc(-c2ccc(C(=O)NCCCN3CCCC3)cc2)cnc1N)c1c(F)ccc(F)c1Cl` (stereo not drawn) [II-109, 4-{5-Amino-6-[1-(2-chloro-3,6-difluoro-phenyl)-ethoxy]-pyrazin-2-yl}-N-(3-pyrrolidin-1-yl-propyl)-benzamide], the IC50 turned out to be 0.1 µM.

Turning to `CC(Oc1nc(-c2cccc(C(=O)N3CCC[C@@H]3CN3CCCC3)c2)cnc1N)c1c(Cl)cccc1Cl` (stereo partly drawn) [II-177, (3-{5-Amino-6-[1-(2,6-dichloro-phenyl)-ethoxy]-pyrazin-2-yl}-phenyl)-((R)-2-pyrrolidin-1-ylmethyl-pyrrolidin-1-yl)-methanone], the IC50 was 0.33 µM.

In the case of `CC(Oc1nc(-c2ccc(NC(=O)N3CC[C@H](N)C3)cc2)cnc1N)c1c(F)ccc(F)c1Cl` (stereo partly drawn) [II-187, (S)-3-Amino-pyrrolidine-1-carboxylic acid (4-{5-amino-6-[1-(2-chloro-3,6-difluoro-phenyl)-ethoxy]-pyrazin-2-yl}-phenyl)-amide], the IC50 came to 0.082 µM.

Consider `Nc1ncc(-c2ccccc2)cc1OCc1c(F)ccc(F)c1F` [Example I-99, 5-Phenyl-3-(2,3,6-trifluoro-benzyloxy)-pyridin-2-ylamine], for which the IC50 is 3.9 µM.

For `Nc1ncc(-c2ccccc2OCc2ccccc2)cc1OCc1c(Cl)cccc1Cl` [Example I-31, 5-(2-Benzyloxy-phenyl)-3-(2,6-dichloro-benzyloxy)-pyridin-2-ylamine], the IC50 was greater than 20 µM.

As for `Nc1ncc(-c2ccccc2)cc1OCc1c(F)ccc(Cl)c1F` [Example I-102, 3-(3-Chloro-2,6-difluoro-benzyloxy)-5-phenyl-pyridin-2-ylamine], the IC50 turned out to be 9.6 µM.

With `Nc1ncc(-c2ccc(C(=O)N3CCC(CCO)CC3)cc2)cc1OCc1c(Cl)cccc1Cl` [Example I-42, {4-(6-Amino-5-(2,6-dichloro-benzyloxy)-pyridin-3-yl]-phenyl}-[4-(2-hydroxy-ethyl)-piperidin-1-yl]-methanone], the IC50 was 0.56 µM.

With `Nc1ncc(-c2ccc(C(=O)NCC(O)CN3CCCC3)cc2)cc1OCc1c(Cl)cccc1Cl` (stereo not drawn) [Example I-46, 4-[6-Amino-5-(2,6-dichloro-benzyloxy)-pyridin-3-yl]-N-(2-hydroxy-3-pyrrolidin-1-yl-propyl)-benzamide], the IC50 is 0.2 µM.

As for `Cc1ccc(F)c(COc2cc(-c3ccccc3)cnc2N)c1Cl` [Example I-98, 3-(2-Chloro-6-fluoro-3-methyl-benzyloxy)-5-phenyl-pyridin-2-ylamine], the IC50 was determined as 7.6 µM.

As to `CS(=O)(=O)Nc1ccc(-c2cnc(N)c(OCc3ccccc3C(N)=O)c2)cc1` [Example I-136, 2-[2-Amino-5-(4-methanesulfonylamino-phenyl)-pyridin-3-yloxymethyl]-benzamide], the IC50 was greater than 20 µM.

`CC(Oc1nc(-c2cccc(C(=O)N3CCC(N4CCCC4)CC3)c2)cnc1N)c1c(Cl)cccc1Cl` (stereo not drawn) [II-174, (3-{5-Amino-6-[1-(2,6-dichloro-phenyl)-ethoxy]-pyrazin-2-yl}-phenyl)-(4-pyrrolidin-1-yl-piperidin-1-yl)-methanone]: the IC50 was determined as 0.17 µM.

Take `Nc1ncc(-c2ccc(C(=O)O)cc2)cc1OCc1c(Cl)cccc1Cl` [Example I-35, 4-[6-Amino-5-(2,6-dichloro-benzyloxy)-pyridin-3-yl]-benzoic acid]: the IC50 stood at 12.8 µM.

Regarding `CC(=O)N1CCN(CCNC(=O)c2cccc(-c3cnc(N)c(OCc4c(F)ccc(F)c4Cl)n3)c2)CC1` [II-59, N-[2-(4-Acetyl-piperazin-1-yl)-ethyl]-3-[5-amino-6-(2-chloro-3,6-difluoro-benzyloxy)-pyrazin-2-yl]-benzamide], the IC50 came out at 2.77 µM.

Consider `Nc1ncc(-c2ccc(C(=O)N3CCC[C@@H]3CN3CCCC3)cc2)cc1OCc1cc(F)ccc1C(F)(F)F` [Example I-113, {4-(6-Amino-5-(5-fluoro-2-trifluoromethyl-benzyloxy)pyridin-3-yl]-phenyl}-[(2R)-2-pyrrolidin-1-ylmethyl-pyrrolidin-1-yl]-methanone], for which the IC50 was determined as 1.27 µM.

For the origin of these results see US20050009840A1 (SUGEN, INC., priority 2003, published 2005).
